Test system: PDE4
Assay: Inhibition of PDE4 activity (method of Bauer and Schwabe, microtiter plates)
Assay type: biochemical
Settings: inhibitory concentration as −log IC50 (mol/l)
Procedure: The activity test was carried out according to the method of Bauer and Schwabe, which was adapted to microtiter plates (Naunyn-Schmiedeberg's Arch. Pharmacol. 1980, 311, 193-198). The PDE reaction takes place in the first step here. In a second step, the resulting 5′-nucleotide is cleaved by a 5′-nucloetidase of the snake venom of Crotalus atrox to the uncharged nucleoside. In the third step, the nucleoside is separated from the remaining charged substrate on ion-exchange columns. The columns are eluted directly into minivials, into which 2 ml of scintillator fluid are additionally added for counting, using 2 ml of 30 mM ammonium formate (pH 6.0).
The inhibitory values determined for the compounds according to the invention [inhibitory concentration as −log IC50 (mol/l)] follow from the following Table A, in which the numbers of the compounds correspond to the numbers of the examples.

Question: For COc1cc2c(cc1OC)C1CCCCC1N=C2c1cc(C(F)(F)F)cc(C(F)(F)F)c1 (single isomer, unassigned; (-)) [Compound 2, (−)-cis-6-(Bis-3,5-trifluoromethylphenyl)-8,9-dimethoxy-1,2,3,4,4a,10b-hexahydrophenanthridine], which “−log IC50 (inhibition of the PDE4 activity)” value is on record?
Answer: Its value is 6.93.

Question: Which “−log IC50 (inhibition of the PDE4 activity)” value does the source give for COc1cc2c(cc1OC)[C@@H]1CCCC[C@@H]1N=C2c1cc([N+](=O)[O-])cc([N+](=O)[O-])c1 [Compound 3, (−)-cis-8,9-Dimethoxy-6-(3,5-dinitrophenyl)-1,2,3,4,4a,10b-hexahydrophenanthridine] here?
Answer: The value was 6.56.

Question: For COc1cc2c(cc1OC)[C@@H]1CCCC[C@@H]1N=C2c1cc(OC)c(OC)c(OC)c1 [Compound 4, (−)-cis-8,9-Dimethoxy-6-(3,4,5-trimethoxyphenyl)-1,2,3,4,4a,10b-hexahydrophenanthridine], which “−log IC50 (inhibition of the PDE4 activity)” value is on record?
Answer: The value was 6.96.

Question: With CCOc1cc(C2=N[C@H]3CCCC[C@H]3c3cc(OC)c(OC)cc32)cc(OCC)c1OCC [Compound 6, (−)-cis-8,9-Dimethoxy-6-(3,4,5-triethoxyphenyl)-1,2,3,4,4a,10b-hexahydrophenanthridine] as the compound, how does the “−log IC50 (inhibition of the PDE4 activity)” value read?
Answer: The value was 7.81.

Question: Which “−log IC50 (inhibition of the PDE4 activity)” value does the source give for COc1cc2c(cc1OC)[C@@H]1CCCC[C@@H]1N=C2c1cc(OC)c(OC)c(S(C)(=O)=O)c1 [Compound 5, (−)-cis-6-(3-Methanesulfonyl-4,5-dimethoxyphenyl)-8,9-dimethoxy-1,2,3,4,4a,10b-hexahydrophenanthridine] here?
Answer: Its value is 7.57.

Question: With COc1cc2c(cc1OC)[C@@H]1CCCC[C@@H]1N=C2c1ccc([N+](=O)[O-])c([N+](=O)[O-])c1 [Compound 1, (−)-cis-8,9-Dimethoxy-6-(3,4-dinitrophenyl)-1,2,3,4,4a,10b-hexahydrophenanthridine] as the compound, how does the “−log IC50 (inhibition of the PDE4 activity)” value read?
Answer: The value was 7.26.

Test system: not given
Assay: not given
Settings: not given

Question: Which melting point does the source give for COc1cc2c(cc1OC)[C@@H]1CCCC[C@@H]1N=C2c1ccc([N+](=O)[O-])c([N+](=O)[O-])c1 [Compound 1, (−)-cis-8,9-Dimethoxy-6-(3,4-dinitrophenyl)-1,2,3,4,4a,10b-hexahydrophenanthridine] here?
Answer: Its melting point is 162 to 165 °C.

— patent US6534518B1, “Polysubstituted 6-phenylphenanthridines with PDE-IV inhibiting activity” (Altana Pharma AG, priority 1999, dated 2003)
